Source: the supplement of paper PMC5908809

How the values were obtained:
Assay in all cases: relative IC50 (inflection point of fitted viability curve, relative to fitted max inhibition); higher = less sensitive
Conditions in all cases: 72 h
[1] = tested on: SNK-6 (IL-2 2.5 ng/mL)
Procedure: (§1)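 Drug sensitivity and resistance testing: 5 concentrations over a 10,000-fold range, 72 h at 37 °C, viability by CellTiter-Glo normalised to DMSO and benzethonium chloride controls. IC50 is the inflection point of a logistic fit (min fixed at 0, max fitted), so it is relative to the fitted maximal inhibition. Kept only where fitted max inhibition is at least 50%.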

[2] = tested on: DERL-7 (IL-2 2.5 ng/mL)
Procedure: as §1

[3] = tested on: IMC-1 (IL-2 20 ng/mL)
Procedure: as §1

[4] = tested on: KAI3 (IL-2 2.5 ng/mL)
Procedure: as §1

[5] = tested on: KHYG-1 (IL-2 2.5 ng/mL)
Procedure: as §1

[6] = tested on: NK-92 (IL-2 2.5 ng/mL)
Procedure: as §1

[7] = tested on: NK-YS (IL-2 2.5 ng/mL)
Procedure: as §1

[8] = tested on: NKL (IL-2 2.5 ng/mL)
Procedure: as §1

[9] = tested on: YT (IL-2 2.5 ng/mL)
Procedure: as §1

[10] = tested on: normal primary NK cells, pool 1 (3 donors) (IL-2 2.5 ng/mL)
Procedure: as §1

[11] = tested on: normal primary NK cells, pool 2 (3 donors) (IL-2 2.5 ng/mL)
Procedure: as §1

[12] = tested on: normal primary NK cells, pool 3 (3 donors) (IL-2 2.5 ng/mL)
Procedure: as §1

[13] = tested on: normal primary NK cells, pool 1 (3 donors), resting (IL-2 0 ng/mL)
Procedure: as §1

Compound | relative IC50 [1] [nM] | relative IC50 [2] [nM] | relative IC50 [3] [nM] | relative IC50 [4] [nM] | relative IC50 [5] [nM] | relative IC50 [6] [nM] | relative IC50 [7] [nM] | relative IC50 [8] [nM] | relative IC50 [9] [nM] | relative IC50 [10] [nM] | relative IC50 [11] [nM] | relative IC50 [12] [nM] | relative IC50 [13] [nM]
CC(C)(C)NC(=O)[C@H]1CC[C@H]2[C@@H]3CC[C@H]4NC(=O)C=C[C@]4(C)[C@H]3CC[C@]12C [Finasteride] | > 10000 | – | – | – | – | – | – | – | – | – | – | – | –
CC(C)c1c(C(=O)Nc2ccccc2)c(-c2ccccc2)c(-c2ccc(F)cc2)n1CC[C@@H](O)C[C@@H](O)CC(=O)O [Atorvastatin] | – | 2180 | 1520 | 2760 | 2380 | 3670 | 579 | 332 | 1630 | – | – | – | –
N#CCNC(=O)c1ccc(-c2ccnc(Nc3ccc(N4CCOCC4)cc3)n2)cc1 [Momelotinib] | 891 | 394 | 1800 | 205 | 173 | 346 | 796 | 178 | 1140 | 177 | 810 | 1000 | –
CNC(=O)c1ccc2cc([C@@]3(O)CCn4cncc43)ccc2c1 [Orteronel] | – | – | – | > 10000 | – | – | > 10000 | – | – | – | > 10000 | > 10000 | –
NC(=O)NO [Hydroxyurea] | – | – | – | 2630 | – | – | – | – | – | – | – | – | –
O=P1(NCCCl)OCCCN1CCCl (stereo not drawn) [Ifosfamide] | – | > 10000 | > 10000 | > 10000 | > 10000 | > 10000 | – | > 10000 | > 10000 | – | > 10000 | > 10000 | –
N#CC1(c2ccc(NC(=O)c3cccnc3NCc3ccncc3)cc2)CCCC1 [Apatinib] | – | – | – | – | – | 1710 | – | > 10000 | – | – | > 10000 | – | –
Cn1c(Nc2ccc(C(F)(F)F)cc2)nc2cc(Oc3ccnc(-c4ncc(C(F)(F)F)[nH]4)c3)ccc21 [RAF265] | – | – | – | – | – | 175 | – | – | – | – | – | – | 47.4
CC(C)Cn1cnc2c(N)nc3ccccc3c21 [Imiquimod] | 89.6 | – | – | – | – | – | – | – | – | – | – | – | –
COc1cc(Nc2ncc(F)c(Nc3ccc4c(n3)N(COP(=O)(O)O)C(=O)C(C)(C)O4)n2)cc(OC)c1OC [Fostamatinib] | – | – | > 2500 | – | – | – | – | – | – | – | – | – | –
O=C(O)c1ccc(-c2c[nH]c3ncc(-c4ccccc4)cc23)cc1C1CCCC1 | – | 2820 | 3040 | 307 | 1490 | 2330 | 1460 | 1400 | – | – | – | – | –
CC(C)n1cnc2c(NCCc3ccc(O)cc3)nc(-c3csc4ccccc34)nc21 [StemRegenin 1] | 3860 | 112 | – | 3180 | 2450 | 1180 | – | 1620 | 2530 | – | 3420 | – | 1900
C=CCn1c(=O)c2cnc(Nc3ccc(N4CCN(C)CC4)cc3)nc2n1-c1cccc(C(C)(C)O)n1 [MK1775] | 156 | 185 | 361 | 95.7 | 59.3 | 93.8 | 227 | 57.2 | 190 | – | – | – | –
O=C(CCCCCCC(=O)Nc1ccc([C@H]2O[C@@H](CSc3nc(-c4ccccc4)c(-c4ccccc4)o3)C[C@@H](c3ccc(CO)cc3)O2)cc1)NO [Tubacin] | 1800 | 1620 | 2650 | 2070 | 3090 | 1660 | 2830 | 1330 | 2630 | – | – | – | 3800
NC(=O)Nc1cc(-c2cccc(F)c2)sc1C(=O)N[C@H]1CCCNC1 [AZD7762] | 127 | 115 | 353 | 28.8 | 29.2 | 131 | 132 | 43.2 | 145 | – | – | – | –
O=C(NC[C@H](O)CO)c1ccncc1Nc1ccc(I)cc1F [Pimasertib] | > 10000 | – | – | – | 83 | – | – | 49 | – | – | – | – | –
NS(=O)(=O)OC[C@@H]1C[C@@H](n2ccc3c(N[C@H]4CCc5ccccc54)ncnc32)C[C@@H]1O [Pevonedistat] | 39.7 | 430 | 107 | 48.7 | 69 | 633 | 507 | 448 | 55.1 | 156 | 449 | 335 | –
CC(C)Oc1cc(Nc2nc(N[C@@H](C)c3ccc(F)cn3)ncc2Cl)n[nH]1 [AZ-23] | – | – | – | – | – | – | – | – | – | – | 606 | – | > 1000
O=C1NC(=O)[C@@H](c2cn3c4c(cccc24)CCC3)[C@@H]1c1c[nH]c2ccccc12 [Tivantinib] | 50.8 | 347 | 310 | 167 | 221 | 115 | 118 | 370 | 238 | – | – | – | –
Clc1ccc(Nc2nnc(Cc3ccncc3)c3ccccc23)cc1 [Vatalanib] | – | – | – | – | – | – | – | – | – | > 10000 | – | > 10000 | –
Cc1ccc(Nc2nccc(N(C)c3ccc4c(C)n(C)nc4c3)n2)cc1S(N)(=O)=O [Pazopanib] | 31.3 | – | – | – | – | – | – | – | – | – | – | > 10000 | –
Cc1cc(Nc2nc(N[C@@H](C)c3ncc(F)cn3)ncc2Cl)[nH]n1 [AZD1480] | 73.1 | 50.5 | 331 | 20.8 | 26.1 | 126 | 78.1 | 23.3 | 197 | 75.5 | 80.6 | 123 | –
Cn1ncnc1[C@H]1c2n[nH]c(=O)c3cc(F)cc(c23)N[C@@H]1c1ccc(F)cc1 [Talazoparib] | 134 | – | 164 | 28.1 | 93.8 | 59.8 | 22.2 | 2.3 | – | – | – | – | –
CN1CCN(c2nc(C3=C(c4c[nH]c5ccccc45)C(=O)NC3=O)c3ccccc3n2)CC1 [Sotrastaurin] | – | 1080 | – | 1620 | 1800 | 1690 | – | 499 | – | – | – | – | –
O=S(=O)(c1cccc2cnccc12)N1CCCNCC1 [Fasudil] | – | – | – | 6870 | – | – | – | – | 8760 | 8170 | 10900 | 15900 | –
C[C@]12C=CC(=O)C=C1CC[C@@H]1[C@@H]2[C@@H](O)C[C@@]2(C)[C@H]1CC[C@]2(O)C(=O)CO [Prednisolone] | – | 65.7 | > 10000 | > 10000 | – | > 10000 | – | 24.7 | – | 185 | 165 | – | 69.9
NC(=S)N/N=C/c1ncccc1N [Triapine] | 3550 | 3580 | 3720 | 1320 | 642 | 748 | 1450 | 3560 | 3750 | 2490 | – | – | 1510
CCC(C)(C)C(=O)O[C@H]1C[C@@H](C)C=C2C=C[C@H](C)[C@H](CC[C@@H]3C[C@@H](O)CC(=O)O3)[C@H]21 [Simvastatin] | – | – | – | – | – | – | 2380 | 2450 | – | – | – | – | –
Oc1nc(-c2ccc(C(F)(F)F)cc2)nc2c1CSCC2 [XAV-939] | 968 | – | – | – | – | – | – | – | – | – | – | – | > 10000
